How the values were obtained:
E. coli DNA polymerase I = target: T1, E. coli DNA polymerase I (Escherichia coli, UniProt P00582); assay: In vitro DNA polymerase assay; format: biochemical; conditions: vesnarinone up to 100 μg/ml
T1 construct: purchased Boehringer Mannheim

EBNA2, LMP1, bcl-2 = assay: Western blot of EBNA2, LMP1 and bcl-2 in Burkitt's lymphoma cell lines; format: cell-based, human; conditions: 20 μg/ml vesnarinone 7 days
Source text: The cell lines included Akata (type A, group I), Raji (type A, group III), P3HR1 (type B, group I) (ATCC No. HTB-62), and Jijoye (type B, group III) (ATCC No. CCL-87). The molecules examined were a latent nuclear protein, EBNA2, a latent membrane protein, LMP1, and an anti-apoptotic host component, bcl-2. […] These differences between the two phenotypes have been related to the sensitivity to induce apoptosis, and the ability to induce the productive phase of EBV infection (Henderson et al, Cell, 65:1107-1115 (1991); and Gregory et al, Nature, 349:612-614 (1991)).
For detection of EBNA2, LMP1, and bcl-2, the mouse monoclonal anti-EBNA2 (PE2, Accurate, Westbury, N.Y.) (Young et al, N. Engl. J. Med., 321:1080-1085 (1989)), the mouse monoclonal anti-LMP1 (S12, provided by Dr. David A. Thorley-Lawson) (Mann et al, J. Virol., 55:710-720 (1985)), and the monoclonal anti-bcl-2 (bcl-2/124, Accurate) (Pezzella et al, Am. J. Pathol., 137:225-232 (1990)), respectively, were used. The ECL chemiluminescence method was used for the detection of these proteins.

[1] = tested on: Akata, P3HR1, Jijoye, Raji; assay: Cell growth of Burkitt's lymphoma cell lines, 7 days; format: cell-based; conditions: Homo sapiens, Burkitts lymphoma cell, 168 h; read-out: cell growth (cell numbers) relative to control cultures
thymidine kinase [2] = assay: Thymidine kinase activity in extracts of treated Akata cells; format: cell-based; conditions: 100 μg/ml vesnarinone
Method: The pellet of frozen cells was suspended in 100 μl of kinase extraction buffer comprising 50 mM Tris (pH 8.0), 50 mM KCl, 1.0 mM MgCl2, 1.0 mM ATP, 1.0 mM DTT, 5.0% (v/v) glycerol, 80 μg/ml aprotinin, 40 μM leupeptin and 1.0 mM PMSF, and incubated on ice for 30 min after a brief sonication. The nuclei were removed by high speed centrifugation for 15 min and the supernatant (kinase extract) was aliquoted and stored at -70° C. The protein concentration of the kinase extract (about 4.0 mg/ml) was determined using standard Bradford Reagent (Bio-Rad Protein Assay Kit, Bio-Rad Laboratories, Hercules, Calif.), with BSA as a protein standard.
5.0 μl of the kinase extract was incubated at 37° C. with 35 µl of kinase reaction buffer comprising 150 mM phosphate (pH 7.5), 20 mM ATP, 20 mM MgCl2, 40 mM KCl, 1.0 mM DTT, 10 mM NaF and 20 μM [^3 H]thymidine (6.7 Ci/mmole, ICN) for 5 or 15 min. The reaction was terminated by placing on ice, and an addition of 4.0 μl of 0.5M EDTA (pH 8.0). […]
The amount of phosphorylated [^3 H]thymidine derivatives formed during the reaction was determined by applying the reaction mixtures onto Whatman DE-81 paper filters, which were then washed four times in 1.0 mM ammoniumformate (pH 8.0), and once in ethanol before drying and liquid scintillation counting. […]

thymidine kinase [3] = assay: Thymidine kinase assay, vesnarinone added in vitro; format: biochemical; conditions: vesnarinone up to 100 μg/ml
Method: 5.0 μl of the kinase extract was incubated at 37° C. with 35 µl of kinase reaction buffer comprising 150 mM phosphate (pH 7.5), 20 mM ATP, 20 mM MgCl2, 40 mM KCl, 1.0 mM DTT, 10 mM NaF and 20 μM [^3 H]thymidine (6.7 Ci/mmole, ICN) for 5 or 15 min. The reaction was terminated by placing on ice, and an addition of 4.0 μl of 0.5M EDTA (pH 8.0). For measurement of dTTP-resistant thymidine kinase activity, a kinase reaction buffer additionally containing 100 μM dTTP (Pharmacia) was used.
The amount of phosphorylated [^3 H]thymidine derivatives formed during the reaction was determined by applying the reaction mixtures onto Whatman DE-81 paper filters, which were then washed four times in 1.0 mM ammoniumformate (pH 8.0), and once in ethanol before drying and liquid scintillation counting.

U937 cells [4] = assay: Intracellular AZT-MP, AZT-DP, AZT-TP in U937 cells by HPLC; conditions: vesnarinone 75 μM (30 μg/ml); [3H]AZT 2 hr
Method: 1.0 ml fractions were collected, and the radioactivity was measured by liquid scintillation. The retention time for AZT and AZT-MP was confirmed using cold AZT and AZT-MP (Sigma) under the same conditions.
Intracellular concentrations of [^3 H]AZT-MP, [^3 H]AZT-DP, and [^3 H]AZT-TP were measured using HPLC as described above.

U937 cells [5] = assay: [3H]thymidine uptake in U937 cells within 1 min; format: cell-based, human; conditions: 0-250 μM vesnarinone or 0-1000 nM dipyridamole
Method: Dipyridamole was prepared as a 50 mM stock solution dissolved in ethanol.

CHO cells = assay: [3H]adenosine / [3H]adenine transport in CHO cells; conditions: 0-750 μM vesnarinone or 0-100 μM dipyridamole, 1 min pulse
U937 cells [6] = assay: Intracellular phosphorylated AZT in U937 cells (DEAE filter); conditions: 0-250 μM vesnarinone or 0-100 nM dipyridamole; 2 hr

T1 sequence (P00582 whole entry): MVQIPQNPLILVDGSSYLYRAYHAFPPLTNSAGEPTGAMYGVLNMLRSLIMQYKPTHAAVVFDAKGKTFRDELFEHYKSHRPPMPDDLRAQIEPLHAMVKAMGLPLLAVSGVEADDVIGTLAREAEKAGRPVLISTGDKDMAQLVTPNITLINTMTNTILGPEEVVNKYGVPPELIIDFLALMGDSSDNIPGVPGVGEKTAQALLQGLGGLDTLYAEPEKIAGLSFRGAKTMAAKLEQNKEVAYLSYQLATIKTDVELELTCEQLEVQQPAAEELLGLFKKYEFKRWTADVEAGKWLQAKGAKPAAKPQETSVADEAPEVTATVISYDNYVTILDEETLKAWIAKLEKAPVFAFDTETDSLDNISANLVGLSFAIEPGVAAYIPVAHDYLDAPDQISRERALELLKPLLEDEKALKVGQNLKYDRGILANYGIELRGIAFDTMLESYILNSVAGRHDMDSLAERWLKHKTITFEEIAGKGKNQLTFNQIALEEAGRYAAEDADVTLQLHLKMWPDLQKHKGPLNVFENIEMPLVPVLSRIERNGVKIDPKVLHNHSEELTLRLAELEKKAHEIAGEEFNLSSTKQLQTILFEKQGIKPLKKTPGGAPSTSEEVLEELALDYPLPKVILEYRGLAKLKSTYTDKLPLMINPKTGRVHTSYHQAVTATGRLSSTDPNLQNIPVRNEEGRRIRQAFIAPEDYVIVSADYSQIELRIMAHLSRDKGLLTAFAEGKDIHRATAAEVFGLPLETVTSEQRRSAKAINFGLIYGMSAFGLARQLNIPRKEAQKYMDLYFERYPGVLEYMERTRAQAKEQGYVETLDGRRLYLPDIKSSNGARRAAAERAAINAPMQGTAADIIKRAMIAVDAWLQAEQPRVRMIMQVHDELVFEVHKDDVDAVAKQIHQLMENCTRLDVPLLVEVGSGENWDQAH

COc1ccc(C(=O)N2CCN(c3ccc4c(c3)CCC(=O)N4)CC2)cc1OC [vesnarinone, 3,4-dihydro-6-[4-(3,4-dimethoxybenzoyl)-1-piperazinyl]-2(1H)-quinoline]
effect on in vitro DNA polymerase assay (E. coli DNA polymerase I): has no effect on the measurement of dNTP contents in this in vitro DNA polymerase assay | expression of EBNA2, LMP1, bcl-2 (EBNA2, LMP1, bcl-2; group I lines (Akata, P3HR1)): did not induce these molecules in the group I lines | expression of EBNA2, LMP1, bcl-2 (EBNA2, LMP1, bcl-2; group III lines (Raji, Jijoye)): nor did the vesnarinone alter levels of expression of these molecules in the group III lines | activity at 20 µg/mL [1]: 80 to 90% | increase in dTTP-resistant thymidine kinase (thymidine kinase [2]; 100 μM dTTP in reaction): partially suppressed by vesnarinone treatment | increase in whole thymidine kinase activity in anti-IgG treated cells (thymidine kinase [2]; without dTTP): partially inhibited in the presence of vesnarinone | thymidine kinase activity, drug added to in vitro assay (thymidine kinase [3]): did not display any inhibition of the thymidine kinase activity | increase of intracellular AZT-DP (U937 cells [4]): 45% | increase of intracellular AZT-MP (U937 cells [4]): 100% | uptake of thymidine (U937 cells [5]): inhibited the uptake of thymidine in a dose-dependent manner | [3H]adenosine and [3H]adenine transport (CHO cells): inhibitory effects on nucleoside and nucleobase transport in vitro were observed within the therapeutic range | intracellular concentration of phosphorylated AZT (U937 cells [6]): increased the concentration of phosphorylated AZT in U937 cells in a dose-dependent manner

From patent US5670520A, “Method for inhibiting virus replication in mammalian cells using carbostyil derivatives” (Otsuka Pharmaceutical Co., Ltd., priority 1996, dated 1997)
